Biological target: FGFR2 (Homo sapiens, UniProt P21802)
Test: FGFR wild type enzyme assay (HTRF KinEASE-TK), FGFR2
Conditions: Enz FGFR2 (nM), FGFR2 wild type enzyme assay

Chain of FGFR2 (P21802 399-821 limits assumed): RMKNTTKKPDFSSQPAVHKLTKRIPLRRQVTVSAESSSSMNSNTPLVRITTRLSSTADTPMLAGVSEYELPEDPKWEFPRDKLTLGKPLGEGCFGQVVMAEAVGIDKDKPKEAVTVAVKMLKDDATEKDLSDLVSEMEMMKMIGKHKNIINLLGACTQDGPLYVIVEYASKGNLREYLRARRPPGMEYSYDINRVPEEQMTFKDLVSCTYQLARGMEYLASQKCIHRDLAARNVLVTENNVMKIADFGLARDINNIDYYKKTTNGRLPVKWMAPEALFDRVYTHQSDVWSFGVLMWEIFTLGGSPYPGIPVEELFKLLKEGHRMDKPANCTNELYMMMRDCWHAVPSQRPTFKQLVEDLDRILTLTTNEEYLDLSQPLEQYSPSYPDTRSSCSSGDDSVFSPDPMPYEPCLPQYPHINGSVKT

Structure (SMILES)	IC50 [nM]
Cc1c(-c2cc(Sc3ccc(F)cc3C#N)c3c(C#N)cnn3c2)cnn1[C@H]1CCCN(CCO)C1 [Example 336, (S)-4-((2-cyano-4-fluorophenyl)thio)-6-(1-(1-(2-hydroxyethyl)piperidin-3-yl)-5-methyl-1H-pyrazol-4-yl)pyrazolo[1,5-a]pyridine-3-carbonitrile]	1
Cc1nn([C@H]2CC[C@@H](N(C)C)CC2)c(C)c1-c1cc(Sc2ccccc2C#N)c2c(C#N)cnn2c1 [Example 337, 4-((2-cyanophenyl)thio)-6-(1-((1s,4s)-4-(dimethylamino)cyclohex-yl)-3,5-dimethyl-1H-pyrazol-4-yl)pyrazolo[1,5-a]pyridine-3-carbonitrile]	3
C#Cc1cnn2cc(-c3cnn(C4CCN(C(=O)CO)CC4)c3C)cc(Sc3ccc(F)cn3)c12 [Example 340, 1-(4-(4-(3-ethynyl-4-((5-fluoropyridin-2-yl)thio)pyrazolo[1,5-a]pyridin-6-yl)-5-methyl-1H-pyrazol-1-yl)piperidin-1-yl)-2-hydroxyethan-1-one]	7.5
Cc1c(-c2cc(Sc3ccc(F)cn3)c3c(C#N)cnn3c2)cnn1C1CCN(C(=O)[C@H](C)O)CC1 [Example 341, (S)-4-((5-fluoropyridin-2-yl)thio)-6-(1-(1-(2-hydroxypropanoyl)piperidin-4-yl)-5-methyl-1H-pyrazol-4-yl)pyrazolo[1,5-a]pyridine-3-carbonitrile]	9
Cc1c(-c2cc(Sc3ncc(F)cc3F)c3c(C#N)cnn3c2)cnn1C1CCN(C(=O)[C@H](C)O)CC1 [Example 342, (S)-4-((3,5-difluoropyridin-2-yl)thio)-6-(1-(1-(2-hydroxypropanoyl)piperidin-4-yl)-5-methyl-1H-pyrazol-4-yl)pyrazolo[1,5-a]pyridine-3-carbonitrile]	6
Cc1c(-c2cc(Sc3ccc(F)cn3)c3c(C#N)cnn3c2)cnn1[C@H]1CCCN(C)C1 [Example 343, (S)-4-((5-fluoropyridin-2-yl)thio)-6-(5-methyl-1-(1-methylpiperidin-3-yl)-1H-pyrazol-4-yl)pyrazolo[1,5-a]pyridine-3-carbonitrile]	9
Cc1c(-c2cc(Sc3ncc(F)cc3F)c3c(C#N)cnn3c2)cnn1[C@H]1CC[C@@H](NC(=O)CO)CC1 [Example 344, N-((1s,4s)-4-(4-(3-cyano-4-((3,5-difluoropyridin-2-yl)thio)pyrazolo[1,5-a]pyridin-6-yl)-5-methyl-1H-pyrazol-1-yl)cyclohexyl)-2-hydroxyacetamide]	3
Cc1c(-c2cc(Sc3ncc(F)cc3F)c3c(C#N)cnn3c2)cnn1[C@H]1CCCNC1 [Example 345, (S)-4-((3,5-difluoropyridin-2-yl)thio)-6-(5-methyl-1-(piperidin-3-yl)-1H-pyrazol-4-yl)pyrazolo[1,5-a]pyridine-3-carbonitrile]	4
Cc1c(-c2cc(Sc3ncc(F)cc3F)c3c(C#N)cnn3c2)cnn1[C@H]1CCCN(C)C1 [Example 346, (S)-4-((3,5-difluoropyridin-2-yl)thio)-6-(5-methyl-1-(1-methylpiperidin-3-yl)-1H-pyrazol-4-yl)pyrazolo[1,5-a]pyridine-3-carbonitrile]	5
CN[C@H]1CC[C@H](n2ncc(-c3cc(Sc4ccccn4)c4c(C#N)cnn4c3)c2C)CC1 [Example 347, 6-(5-methyl-1-((1r,4r)-4-(methylamino)cyclohexyl)-1H-pyrazol-4-yl)-4-(pyridin-2-ylthio)pyrazolo[1,5-a]pyridine-3-carbonitrile]	2.5
CN[C@]1(C)CC[C@H](n2ncc(-c3cc(Sc4ccccn4)c4c(C#N)cnn4c3)c2C)CC1 [Example 348, 6-(5-methyl-1-((1s,4s)-4-methyl-4-(methylamino)cyclohexyl)-1H-pyrazol-4-yl)-4-(pyridin-2-ylthio)pyrazolo[1,5-a]pyridine-3-carbonitrile]	2
CC(=O)N[C@H]1CC[C@@H](n2cc(-c3cc(Sc4ccc(F)cn4)c4c(C#N)cnn4c3)cn2)CC1 [Example 349, N-((1s,4s)-4-(4-(3-cyano-4-((5-fluoropyridin-2-yl)thio)pyrazolo[1,5-a]pyridin-6-yl)-1H-pyrazol-1-yl)cyclohexyl)acetamide]	3
CC(=O)N[C@H]1CC[C@H](n2cc(-c3cc(Sc4ccccc4C#N)c4c(C#N)cnn4c3)cn2)C1 [Example 350, N-((1s,3S)-3-(4-(3-cyano-4-((2-cyanophenyl)thio)pyrazolo [1,5-a]pyridin-6-yl)-1H-pyrazol-1-yl)cyclopentyl)acetamide]	0.5
Cc1cccc(Sc2cc(-c3cnn(C4CCN(C)CC4)c3C)cn3ncc(C#N)c23)c1C#N [Example 355, 4-((2-cyano-3-methylphenyl)thio)-6-(5-methyl-1-(1-methylpiperidin-4-yl)-1H-pyrazol-4-yl)pyrazolo[1,5-a]pyridine-3-carbonitrile]	2
Cc1c(-c2cc(Sc3cccc(F)c3C#N)c3c(C#N)cnn3c2)cnn1C1CCN(C)CC1 [Example 356, 4-((2-cyano-3-fluorophenyl)thio)-6-(5-methyl-1-(1-methylpiperidin-4-yl)-1H-pyrazol-4-yl)pyrazolo[1,5-a]pyridine-3-carbonitrile]	10
Cc1ccc(C#N)c(Sc2cc(-c3cnn(C4CCN(C)CC4)c3C)cn3ncc(C#N)c23)c1 [Example 357, 4-((2-cyano-5-methylphenyl)thio)-6-(5-methyl-1-(1-methylpiperidin-4-yl)-1H-pyrazol-4-yl)pyrazolo[1,5-a]pyridine-3-carbonitrile]	2
Cc1c(-c2cc(Sc3cc(Cl)ccc3C#N)c3c(C#N)cnn3c2)cnn1C1CCN(C)CC1 [Example 358, 4-((5-chloro-2-cyanophenyl)thio)-6-(5-methyl-1-(1-methylpiperidin-4-yl)-1H-pyrazol-4-yl)pyrazolo[1,5-a]pyridine-3-carbonitrile]	2

Second part, the molecule after the results:

IC50 [nM]	Structure (SMILES)
1	CC(=O)N1CCC(n2ncc(-c3cc(Sc4ccc(F)cc4C#N)c4c(C#N)cnn4c3)c2C)CC1 [Example 338, 6-(1-(1-acetylpiperidin-4-yl)-5-methyl-1H-pyrazol-4-yl)-4-((2-cyano-4-fluorophenyl)thio)pyrazolo [1,5-a]pyridine-3-carbonitrile]
1	Cc1c(-c2cc(Sc3ccc(F)cc3C#N)c3c(C#N)cnn3c2)cnn1C1CCN(C(=O)CO)CC1 [Example 339, 4-((2-cyano-4-fluorophenyl)thio)-6-(1-(1-(2-hydroxyacetyl)piperidin-4-yl)-5-methyl-1H-pyrazol-4-yl)pyrazolo[1,5-a]pyridine-3-carbonitrile]
0.5	Cc1c(-c2cc(Sc3ccc(F)cc3C#N)c3c(C#N)cnn3c2)cnn1[C@H]1CC[C@](C)(N)CC1 [Example 351, 6-(1-((1r,4r)-4-amino-4-methylcyclohexyl)-5-methyl-1H-pyrazol-4-yl)-4-((2-cyano-4-fluorophenyl)thio)pyrazolo [1,5-a]pyridine-3-carbonitrile]
0.6	CN[C@]1(C)CC[C@@H](n2ncc(-c3cc(Sc4ccc(F)cc4C#N)c4c(C#N)cnn4c3)c2C)CC1 [Example 352, 4-((2-cyano-4-fluorophenyl)thio)-6-(5-methyl-1-((1r,4r)-4-methyl-4-(methylamino)cyclohexyl)-1H-pyrazol-4-y)pyrazolo[1,5-a]pyridine-3-carbonitrile]
1	Cc1c(-c2cc(Sc3ccc(F)cc3C#N)c3c(C#N)cnn3c2)cnn1C1CCN(CCO)CC1 [Example 353, 4-((2-cyano-4-fluorophenyl)thio)-6-(1-(1-(2-hydroxyethyl)piperidin-4-yl)-5-methyl-1H-pyrazol-4-yl)pyrazolo[1,5-a]pyridine-3-carbonitrile]
2.5	Cc1c(-c2cc(Sc3ccc(F)cc3C#N)c3c(C#N)cnn3c2)cnn1C1CCN(C[C@H](C)O)CC1 [Example 354, (S)-4-((2-cyano-4-fluorophenyl)thio)-6-(1-(1-(2-hydroxypropyl)piperidin-4-yl)-5-methyl-1H-pyrazol-4-yl)pyrazolo[1,5-a]pyridine-3-carbonitrile]
1.5	Cc1c(-c2cc(Sc3cc(F)ccc3C#N)c3c(C#N)cnn3c2)cnn1C1CCN(C)CC1 [Example 359, 4-((2-cyano-5-fluorophenyl)thio)-6-(5-methyl-1-(1-methylpiperidin-4-yl)-1H-pyrazol-4-yl)pyrazolo[1,5-a]pyridine-3-carbonitrile]
2	Cc1c(-c2cc(Sc3ccc(F)cc3C#N)c3c(C#N)cnn3c2)cnn1C1CCN(C(=O)[C@H](C)O)CC1 [Example 360, (S)-4-((2-cyano-4-fluorophenyl)thio)-6-(1-(1-(2-hydroxypropanoyl)piperidin-4-yl)-5-methyl-1H-pyrazol-4-yl)pyrazolo[1,5-a]pyridine-3-carbonitrile]
2	COC(=O)N1CCC(n2ncc(-c3cc(Sc4ccc(F)cc4C#N)c4c(C#N)cnn4c3)c2C)CC1 [Example 361, methyl 4-(4-(3-cyano-4-((2-cyano-4-fluorophenyl)thio)pyrazolo [1,5-a]pyridin-6-yl)-5-methyl-1H-pyrazol-1-yl)piperidine-1-carboxylate]
1	COC(=O)N[C@H]1CC[C@@H](n2ncc(-c3cc(Sc4ccc(F)cc4C#N)c4c(C#N)cnn4c3)c2C)CC1 [Example 362, methyl ((1s,4s)-4-(4-(3-cyano-4-((2-cyano-4-fluorophenyl)thio)pyrazolo [1,5-a]pyridin-6-yl)-5-methyl-1H-pyrazol-1-yl)cyclohexyl)carbamate]
2	COC(=O)N1CCC[C@H](n2ncc(-c3cc(Sc4ccc(F)cc4C#N)c4c(C#N)cnn4c3)c2C)C1 [Example 363, methyl (S)-3-(4-(3-cyano-4-((2-cyano-4-fluorophenyl)thio)pyrazolo [1,5-a]pyridin-6-yl)-5-methyl-1H-pyrazol-1-yl)piperidine-1-carboxylate]
3	COC(=O)N[C@]1(C)CC[C@H](n2ncc(-c3cc(Sc4ccc(F)cc4C#N)c4c(C#N)cnn4c3)c2C)CC1 [Example 364, methyl ((1s,4s)-4-(4-(3-cyano-4-((2-cyano-4-fluorophenyl)thio)pyrazolo [1,5-a]pyridin-6-yl)-5-methyl-1H-pyrazol-1-yl)-1-methylcyclohexyl)carba-mate]

— patent publication US20240270741A1 (Cogent Biosciences, Inc., priority 2023, published 2024)
